According to PubChem BioAssay AID2060492 (Molecular Pharmacology Branch, DTP, NCI, 2025):

Tested on: 695427-040-R-J1-PDC complex spheroids, viability percent T/C
Assay: Anticancer human tumor 695427-040-R-J1-PDC patient-derived colon adenocarcinoma cell line growth inhibition [GQUAD]
Conditions: for IC50: curve of first compound; for viability, T/C: stronger effect = lower value
Outline: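 Multi-cell-type spheroids of tumor cells with HUVEC and mesenchymal stem cells, treated with drug combinations. Concentrations descend in half-log steps from near clinical Cmax, or from 10 microM where Cmax is unknown; viability read-out.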

[1] = second compound 0.0316 µM, first compound 0.0316 µM
[2] = second compound 0.0316 µM, first compound 0.1 µM
[3] = second compound 0.0316 µM, first compound 0.316 µM
[4] = second compound 0.0316 µM, first compound 1 µM
[5] = second compound 0.0316 µM, first compound 3.16 µM
[6] = second compound 0.0316 µM, first compound 10 µM
[7] = second compound 0.1 µM, first compound 0.0316 µM
[8] = second compound 0.1 µM, first compound 0.1 µM
[9] = second compound 0.1 µM, first compound 0.316 µM
[10] = second compound 0.1 µM, first compound 1 µM
[11] = second compound 0.1 µM, first compound 3.16 µM
[12] = second compound 0.1 µM, first compound 10 µM
[13] = second compound 0.316 µM, first compound 0.0316 µM
[14] = second compound 0.316 µM, first compound 0.1 µM
[15] = second compound 0.316 µM, first compound 0.316 µM
[16] = second compound 0.316 µM, first compound 1 µM
[17] = second compound 0.316 µM, first compound 3.16 µM
[18] = second compound 0.316 µM, first compound 10 µM
[19] = second compound 1 µM, first compound 0.0316 µM
[20] = second compound 1 µM, first compound 0.1 µM
[21] = second compound 1 µM, first compound 0.316 µM
[22] = second compound 1 µM, first compound 1 µM
[23] = second compound 1 µM, first compound 3.16 µM
[24] = second compound 1 µM, first compound 10 µM
[25] = second compound 3.16 µM, first compound 0.0316 µM
[26] = second compound 3.16 µM, first compound 0.1 µM
[27] = second compound 3.16 µM, first compound 0.316 µM
[28] = second compound 3.16 µM, first compound 1 µM
[29] = second compound 3.16 µM, first compound 3.16 µM
[30] = second compound 3.16 µM, first compound 10 µM
[31] = second compound 10 µM, first compound 0.0316 µM
[32] = second compound 10 µM, first compound 0.1 µM
[33] = second compound 10 µM, first compound 0.316 µM
[34] = second compound 10 µM, first compound 1 µM
[35] = second compound 10 µM, first compound 3.16 µM
[36] = second compound 10 µM, first compound 10 µM
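Further: spheroids exposed to compounds for seven days before readout.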

## COc1cccc2c1C(=O)c1c(O)c3c(c(O)c1C2=O)CC(O)(C(=O)CO)CC3OC1CC(N)C(O)C(C)O1 (stereo unspecified) + CN(C)c1ccc(Nc2c3ccc(NC(=O)CCN4CCCC4)cc3nc3cc(NC(=O)CCN4CCCC4)ccc23)cc1
Second compound 0.0316 µM
  IC50: 9.64 µM
Second compound 0.1 µM
  IC50: > 10 µM
Second compound 0.316 µM
  IC50: > 10 µM
Second compound 1 µM
  IC50: 9.98 µM
Second compound 3.16 µM
  IC50: 8.08 µM
Second compound 10 µM
  IC50: > 10 µM
[1]
  viability, T/C: 97%
[2]
  viability, T/C: 86.8%
[3]
  viability, T/C: 90.3%
[4]
  viability, T/C: 82.3%
[5]
  viability, T/C: 63.1%
[6]
  viability, T/C: 49.7%
[7]
  viability, T/C: 102%
[8]
  viability, T/C: 92%
[9]
  viability, T/C: 85.9%
[10]
  viability, T/C: 81.3%
[11]
  viability, T/C: 66.6%
[12]
  viability, T/C: 53.2%
[13]
  viability, T/C: 93.2%
[14]
  viability, T/C: 89.4%
[15]
  viability, T/C: 90.2%
[16]
  viability, T/C: 80.5%
[17]
  viability, T/C: 63.8%
[18]
  viability, T/C: 50.1%
[19]
  viability, T/C: 90.6%
[20]
  viability, T/C: 87.2%
[21]
  viability, T/C: 81.5%
[22]
  viability, T/C: 78.3%
[23]
  viability, T/C: 69.3%
[24]
  viability, T/C: 49.4%
[25]
  viability, T/C: 97.1%
[26]
  viability, T/C: 87.2%
[27]
  viability, T/C: 87.6%
[28]
  viability, T/C: 77.9%
[29]
  viability, T/C: 65.5%
[30]
  viability, T/C: 46%
[31]
  viability, T/C: 89.2%
[32]
  viability, T/C: 84.6%
[33]
  viability, T/C: 81.8%
[34]
  viability, T/C: 76.1%
[35]
  viability, T/C: 68.2%
[36]
  viability, T/C: 52.3%

## Nc1ccn(C2OC(CO)C(O)C2(F)F)c(=O)n1 (stereo unspecified) + CN(C)c1ccc(Nc2c3ccc(NC(=O)CCN4CCCC4)cc3nc3cc(NC(=O)CCN4CCCC4)ccc23)cc1
Second compound 0.0316 µM
  IC50: > 10 µM
Second compound 0.1 µM
  IC50: > 10 µM
Second compound 0.316 µM
  IC50: > 10 µM
Second compound 1 µM
  IC50: > 10 µM
Second compound 3.16 µM
  IC50: > 10 µM
Second compound 10 µM
  IC50: > 10 µM
[1]
  viability, T/C: 88.9%
[2]
  viability, T/C: 81%
[3]
  viability, T/C: 74.9%
[4]
  viability, T/C: 74.2%
[5]
  viability, T/C: 72.9%
[6]
  viability, T/C: 62.7%
[7]
  viability, T/C: 97.5%
[8]
  viability, T/C: 82.7%
[9]
  viability, T/C: 78.3%
[10]
  viability, T/C: 74.1%
[11]
  viability, T/C: 69.7%
[12]
  viability, T/C: 55.3%
[13]
  viability, T/C: 94.4%
[14]
  viability, T/C: 83.2%
[15]
  viability, T/C: 72.7%
[16]
  viability, T/C: 69.3%
[17]
  viability, T/C: 68.9%
[18]
  viability, T/C: 59.8%
[19]
  viability, T/C: 87.3%
[20]
  viability, T/C: 78.8%
[21]
  viability, T/C: 75%
[22]
  viability, T/C: 70.4%
[23]
  viability, T/C: 70.5%
[24]
  viability, T/C: 57.5%
[25]
  viability, T/C: 76.8%
[26]
  viability, T/C: 78%
[27]
  viability, T/C: 71.4%
[28]
  viability, T/C: 65.2%
[29]
  viability, T/C: 65.5%
[30]
  viability, T/C: 54.4%
[31]
  viability, T/C: 83.1%
[32]
  viability, T/C: 66.2%
[33]
  viability, T/C: 66.3%
[34]
  viability, T/C: 63.6%
[35]
  viability, T/C: 57.6%
[36]
  viability, T/C: 48.2%

## O=c1[nH]cc(F)c(=O)[nH]1 + CN(C)c1ccc(Nc2c3ccc(NC(=O)CCN4CCCC4)cc3nc3cc(NC(=O)CCN4CCCC4)ccc23)cc1
Second compound 0.0316 µM
  IC50: > 10 µM
Second compound 0.1 µM
  IC50: > 10 µM
Second compound 0.316 µM
  IC50: > 10 µM
Second compound 1 µM
  IC50: > 10 µM
Second compound 3.16 µM
  IC50: > 10 µM
Second compound 10 µM
  IC50: > 10 µM
[1]
  viability, T/C: 101%
[2]
  viability, T/C: 90.5%
[3]
  viability, T/C: 90.5%
[4]
  viability, T/C: 92.6%
[5]
  viability, T/C: 95.5%
[6]
  viability, T/C: 97.5%
[7]
  viability, T/C: 103%
[8]
  viability, T/C: 90.1%
[9]
  viability, T/C: 94.9%
[10]
  viability, T/C: 83.8%
[11]
  viability, T/C: 99.8%
[12]
  viability, T/C: 91.5%
[13]
  viability, T/C: 106%
[14]
  viability, T/C: 100%
[15]
  viability, T/C: 99.7%
[16]
  viability, T/C: 92.8%
[17]
  viability, T/C: 94.7%
[18]
  viability, T/C: 94.5%
[19]
  viability, T/C: 103%
[20]
  viability, T/C: 96.9%
[21]
  viability, T/C: 98%
[22]
  viability, T/C: 96.9%
[23]
  viability, T/C: 97.7%
[24]
  viability, T/C: 92.5%
[25]
  viability, T/C: 92.1%
[26]
  viability, T/C: 100%
[27]
  viability, T/C: 90.3%
[28]
  viability, T/C: 88.3%
[29]
  viability, T/C: 90.5%
[30]
  viability, T/C: 91%
[31]
  viability, T/C: 87.8%
[32]
  viability, T/C: 92.6%
[33]
  viability, T/C: 78%
[34]
  viability, T/C: 82.4%
[35]
  viability, T/C: 85.7%
[36]
  viability, T/C: 83.4%
